Measured values as given in US8158628B2, “Sulfonylated 1,2,3,4-tetrahydropyrrolo[1,2-a]pyrazine compounds and their use as pharmaceuticals” (Gruenenthal GmbH, priority 2009, dated 2012).

biological target: T1, B1R of the rat (Rattus norvegicus, UniProt P97583); test: FLIPR Ca2+ functional assay, B1R antagonism, rat B1R in CHO K1 cells; assay type: cell-based; conditions: test substance 10 μM; rB1R CHO K1 cells; agonist Des-Arg9 bradykinin at EC80; % of maximum achievable inhibition
T1 construct: expressed in transfected cells; host or cells: CHO K1 cells (Chinese hamster ovary), stably transfected
T1 sequence (P97583 1-337): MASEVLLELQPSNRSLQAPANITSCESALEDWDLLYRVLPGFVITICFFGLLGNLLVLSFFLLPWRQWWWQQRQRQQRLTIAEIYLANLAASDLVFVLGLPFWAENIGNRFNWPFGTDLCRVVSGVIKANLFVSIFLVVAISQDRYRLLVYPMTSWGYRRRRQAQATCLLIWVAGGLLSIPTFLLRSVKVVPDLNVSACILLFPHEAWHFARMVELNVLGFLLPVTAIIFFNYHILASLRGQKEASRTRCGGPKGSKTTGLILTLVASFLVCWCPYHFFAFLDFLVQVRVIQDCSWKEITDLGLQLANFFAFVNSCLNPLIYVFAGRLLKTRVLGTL
Method: The agonistic or antagonistic action of substances on the bradykinin 1 receptor (B1R) of the human and rat species can be quantified with ectopically expressing cell lines (CHO K1 cells) and with the aid of a Ca^2+-sensitive dye (Fluo-4) using a fluorescent imaging plate reader (FLIPR). The value in % activation is based on the Ca^2+ signal after addition of Lys-Des-Arg^9 bradykinin (0.5 nM) or Des-Arg^9 bradykinin (100 nM). Antagonists lead to a suppression of the Ca^2+ influx following administration of the agonist. The % inhibition in comparison with the maximum achievable inhibition is indicated.
1. Functional Investigation on the Bradykinin 1 Receptor (B1R) The agonistic or antagonistic action of substances can be determined on the bradykinin 1 receptor (B1R) of the human and rat species with the following assay. According to this assay, the Ca^2+ inflow through the channel is quantified with the aid of a Ca^2+-sensitive dye (Fluo-4 type, Molecular Probes Europe BV, Leiden, Netherlands) in a fluorescent imaging plate reader (FLIPR, Molecular Devices, Sunnyvale, USA). 2. Method: Chinese hamster ovary cells (CHO K1 cells) which are stably transfected with the human B1R gene (hB1R cells) or the B1R gene of the rat (rB1R cells) are used. For functional investigations these cells are plated-out onto black 96-well plates with a clear base (BD Biosciences, Heidelberg, Germany or Greiner, Frickenhausen, Germany) in a density of 20,000-35,000 cells/well. Overnight the cells are incubated at 37° C. and 5% CO2 in culture medium (hB1R cells: Ham's Nutrient Mixture F12, Gibco Invitrogen GmbH, Karlsruhe, Germany or DMEM, Sigma-Aldrich, Taufkirchen, Germany; rB1R cells: D-MEM/F12, Gibco Invitrogen, Karlsruhe, Germany) with 10 vol. % FBS (foetal bovine serum, Gibco Invitrogen GmbH, Karlsruhe, Germany or PAN Biotech GmbH, Aidenbach, Germany).
On the following day the cells are loaded with 2.13 μM Fluo-4 (Molecular Probes Europe BV, Leiden, Netherlands) in HBSS buffer (Hank's buffered saline solution, Gibco Invitrogen GmbH, Karlsruhe, Germany) with 2.5 mM probenecid (Sigma-Aldrich, Taufkirchen, Germany) and 10 mM HEPES (Sigma-Aldrich, Taufkirchen, Germany) for 60 min at 37° C. The plates are subsequently washed twice with HBSS buffer, and HBSS buffer which additionally contains 0.1% BSA (bovine serum albumin; Sigma-Aldrich, Taufkirchen, Germany), 5.6 mM glucose and 0.05% gelatine (Merck KGaA, Darmstadt, Germany) is added. After a further incubation of 20 minutes at RT, the plates are inserted into the FLIPR for Ca^2+ measurement. Alternatively they are washed with buffer A (15 mM HEPES, 80 mM NaCl, 5 mM KCl, 1.2 mM CaCl2, 0.7 mM MgSO4, 2 g/l glucose, 2.5 mM probenecid) and loaded with buffer A with added 2.5 μM Fluo-4 and 0.025% Pluronic F127 (Sigma-Aldrich, Taufkirchen, Germany). The cells are then washed twice with buffer A and incubated for 30 minutes with buffer A, which additionally contains 0.05% BSA and 0.05% gelatine, at RT and then used for Ca^2+ measurement in the FLIPR. The Ca^2+-dependent fluorescence is measured here before and after addition of substances (λex=488 nm, λem=540 nm). The quantification is performed by measuring the highest fluorescence intensity (FC, fluorescence counts) over time.
The FLIPR protocol comprises two additions of substance. Test substances (10 μM) are first pipetted onto the cells and the Ca^2+ inflow is compared with the control (hB1R: Lys-Des-Arg^9 bradykinin >=50 nM; rB1R: Des-Arg^9 bradykinin 10 μM). The value in % activation based on the Ca^2+ signal after addition of Lys-Des-Arg^9 bradykinin (>=50 nM) or Des-Arg^9 bradykinin (10 μM) is obtained therefrom. After incubation for 10-20 minutes, Lys-Des-Arg^9 bradykinin (hB1R) or Des-Arg^9 bradykinin (rB1R) is applied in the EC80 concentration and the inflow of Ca^2+ is likewise determined.
Antagonists lead to a suppression of the Ca^2+ inflow. The % inhibition in comparison with the maximum achievable inhibition is calculated. […]

Row | Compound | inhibition at 10 µM [%]
1 | O=C(CC1c2cccn2CCN1S(=O)(=O)c1ccccc1)N1CCC(N2CCOCC2)CC1 (stereo not drawn) [Example 176, 2-[2-(Benzenesulfonyl)-1,2,3,4-tetrahydro-pyrrolo[1,2-a]pyrazin-1-yl]-1-(4-morpholin-4-yl-piperidin-1-yl)-ethanone] | 26.7
2 | CN1CCN(C2CCN(C(=O)CC3c4cccn4CCN3S(=O)(=O)c3ccccc3)CC2)CC1 (stereo not drawn) [Example 177, 2-[2-(Benzenesulfonyl)-1,2,3,4-tetrahydro-pyrrolo[1,2-a]pyrazin-1-yl]-1-[4-(4-methyl-piperazin-1-yl)-piperidin-1-yl]-ethanone] | -1.9
3 | Cc1ccc(C)n1CCN1CCN(C(=O)CC2c3cccn3CCN2S(=O)(=O)c2ccccc2)CC1 (stereo not drawn) [Example 178, 2-[2-(Benzenesulfonyl)-1,2,3,4-tetrahydro-pyrrolo[1,2-a]pyrazin-1-yl]-1-[4-[2-(2,5-dimethyl-1H-pyrrol-1-yl)-ethyl]-piperazin-1-yl]-ethanone] | 17.2
4 | O=C(CC1c2cccn2CCN1S(=O)(=O)c1ccccc1)N1CCN(c2ncccn2)CC1 (stereo not drawn) [Example 179, 2-[2-(Benzenesulfonyl)-1,2,3,4-tetrahydro-pyrrolo[1,2-a]pyrazin-1-yl]-1-(4-pyrimidin-2-yl-piperazin-1-yl)-ethanone] | 20.8
5 | Cc1ccc2[nH]c(C3CCN(C(=O)CC4c5cccn5CCN4S(=O)(=O)c4ccccc4)CC3)nc2c1 (stereo not drawn) [Example 180, 2-[2-(Benzenesulfonyl)-1,2,3,4-tetrahydro-pyrrolo[1,2-a]pyrazin-1-yl]-1-[4-(5-methyl-1H-benzoimidazol-2-yl)-piperidin-1-yl]-ethanone] | 32.9
6 | N#Cc1cccnc1N1CCCN(C(=O)CC2c3cccn3CCN2S(=O)(=O)c2ccccc2)CC1 (stereo not drawn) [Example 181, 2-[4-[2-[2-(Benzenesulfonyl)-1,2,3,4-tetrahydro-pyrrolo[1,2-a]pyrazin-1-yl]-acetyl]-[1,4]diazepan-1-yl]-pyridine-3-carbonitrile] | 33.9
7 | O=C(CC1c2cccn2CCN1S(=O)(=O)c1ccccc1)NCC1CCN(Cc2ccccc2)C1 (stereo not drawn) [Example 182, 2-[2-(Benzenesulfonyl)-1,2,3,4-tetrahydro-pyrrolo[1,2-a]pyrazin-1-yl]-N-[(1-benzyl-pyrrolidin-3-yl)-methyl]-acetamide] | 37.5
8 | O=C(CC1c2cccn2CCN1S(=O)(=O)c1ccccc1)N1CCN(c2ccc(C(F)(F)F)cn2)CC1 (stereo not drawn) [Example 183, 2-[2-(Benzenesulfonyl)-1,2,3,4-tetrahydro-pyrrolo[1,2-a]pyrazin-1-yl]-1-[4-[5-(trifluoromethyl)-pyridin-2-yl]-piperazin-1-yl]-ethanone] | 56.1
9 | CC1CCCC(C)N1CCCNC(=O)CC1c2cccn2CCN1S(=O)(=O)c1cccc(C(F)(F)F)c1 (stereo not drawn) [Example 184, N-[3-(2,6-Dimethyl-piperidin-1-yl)-propyl]-2-[2-[[3-(trifluoromethyl)phenyl]sulfonyl]-1,2,3,4-tetrahydro-pyrrolo[1,2-a]pyrazin-1-yl]-acetamide] | 19.4
10 | CN1CCN(CC(NC(=O)CC2c3cccn3CCN2S(=O)(=O)c2cccc(C(F)(F)F)c2)c2ccccc2)CC1 (stereo not drawn) [Example 185, N-[2-(4-Methyl-piperazin-1-yl)-1-phenyl-ethyl]-2-[2-[[3-(trifluoromethyl)phenyl]sulfonyl]-1,2,3,4-tetrahydro-pyrrolo[1,2-a]pyrazin-1-yl]-acetamide] | 76.4
11 | O=C(CC1c2cccn2CCN1S(=O)(=O)c1cccc(C(F)(F)F)c1)N1CCN(c2ccccc2F)CC1 (stereo not drawn) [Example 186, 1-[4-(2-Fluorophenyl)-piperazin-1-yl]-2-[2-[[3-(trifluoromethyl)phenyl]sulfonyl]-1,2,3,4-tetrahydro-pyrrolo[1,2-a]pyrazin-1-yl]-ethanone] | 24.4
12 | CCN1CCN(C(=O)CC2c3cccn3CCN2S(=O)(=O)c2cccc(C(F)(F)F)c2)CC1 (stereo not drawn) [Example 187, 1-(4-Ethyl-piperazin-1-yl)-2-[2-[[3-(trifluoromethyl)phenyl]sulfonyl]-1,2,3,4-tetrahydro-pyrrolo[1,2-a]pyrazin-1-yl]-ethanone] | 18.3
